# The supplement of paper PMC10307832
# How the values were obtained:
# Assay in all cases: relative viability (nuclei count vs DMSO), 5 days (fraction); higher = more cells survive
# [1] = compound: C1CC(C1)(C(=O)O)C(=O)O.[NH2-].[NH2-].[Pt+2] [Carboplatin] + COc1cc2c(Oc3ccc(NC(=O)C4(C(=O)Nc5ccc(F)cc5)CC4)cc3F)ccnc2cc1OCCCN1CCOCC1 [Foretinib] (partner 0.25 µM)
# How it was run: (§1)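 Values are medians from duplicate plates. Each reflects relative viability, defined as the nuclei count of treated wells over that of vehicle wells. Lung cancer cell lines in 1536-well plates were pin-tool dosed one day after seeding with one drug alone or with a fixed anchor-drug dose plus five library-drug doses (not always all listed) in √10 steps, then fixed, stained and imaged at 4× after 5 days.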
# [2] = compound: C1CC(C1)(C(=O)O)C(=O)O.[NH2-].[NH2-].[Pt+2] [Carboplatin] + CS(=O)(=O)CCNCc1ccc(-c2ccc3ncnc(Nc4ccc(OCc5cccc(F)c5)c(Cl)c4)c3c2)o1 [Lapatinib] (partner 2 µM)
# How it was run: as §1
# [3] = compound: CC[C@H](C)N1C=C(C2=C(C=C(C=C21)C3=CN=C(C=C3)N4CCNCC4)C(=O)NCC5=C(C=C(NC5=O)C)C)C [GSK126] + Cc1cc(Nc2cc(N3CCN(C)CC3)nc(Sc3ccc(NC(=O)C4CC4)cc3)n2)n[nH]1 [Tozasertib] (partner 0.1 µM)
# How it was run: as §1
# [4] = compound: CC[C@H](C)N1C=C(C2=C(C=C(C=C21)C3=CN=C(C=C3)N4CCNCC4)C(=O)NCC5=C(C=C(NC5=O)C)C)C [GSK126] + Nc1ncn([C@H]2C[C@H](O)[C@@H](CO)O2)c(=O)n1 [Decitabine] (partner 2 µM)
# How it was run: as §1
Cell Line,relative viability ([1]; first compound 0.08 µM),relative viability ([1]; first compound 0.253 µM),relative viability ([1]; first compound 0.8 µM),relative viability ([1]; first compound 2.53 µM),relative viability ([1]; first compound 8 µM),relative viability ([2]; first compound 0.08 µM),relative viability ([2]; first compound 0.253 µM),relative viability ([2]; first compound 0.8 µM),relative viability ([2]; first compound 2.53 µM),relative viability ([2]; first compound 8 µM),relative viability ([3]; first compound 0.08 µM),relative viability ([3]; first compound 0.253 µM),relative viability ([3]; first compound 0.8 µM),relative viability ([3]; first compound 2.53 µM),relative viability ([3]; first compound 8 µM),relative viability ([4]; first compound 0.08 µM),relative viability ([4]; first compound 0.253 µM),relative viability ([4]; first compound 0.8 µM),relative viability ([4]; first compound 2.53 µM),relative viability ([4]; first compound 8 µM)
NCI-H2347,1.51,1.01,1.14,1.23,0.788,1.02,0.926,0.918,0.949,0.888,0.664,0.603,0.635,0.597,0.444,0.478,0.588,0.607,0.567,0.648
NCI-H2405,1.15,1.09,0.983,0.958,0.952,1.31,1.06,1.12,1.15,0.904,0.767,0.71,0.752,0.697,0.608,0.757,0.66,0.71,0.747,0.729
NCI-H3122,0.944,0.986,0.926,0.91,0.923,1.1,1,0.981,0.953,0.995,0.423,0.393,0.367,0.33,0.344,0.417,0.373,0.386,0.466,0.543
PC-3 [JPC-3],1.08,1.03,1,1.05,0.933,0.451,0.458,0.465,0.468,0.446,0.879,0.919,0.883,0.866,0.805,0.831,0.74,0.826,0.86,0.881
PC-14,0.945,0.885,0.942,0.905,0.694,0.312,0.368,0.33,0.354,0.251,0.614,0.674,0.639,0.535,0.403,0.215,0.2,0.166,0.255,0.213
RERF-LC-KJ,0.933,0.874,0.956,0.772,0.713,0.854,0.838,0.822,0.841,0.726,0.562,0.449,0.489,0.485,0.357,0.717,0.731,0.715,0.735,0.779
SK-LU-1,0.867,0.878,0.815,0.749,0.543,0.99,1.01,0.766,0.797,0.735,0.293,0.357,0.366,0.321,0.331,0.711,0.535,0.6,0.928,0.708
SK-MES-1,1.24,0.95,0.906,1.06,0.818,0.469,0.475,0.506,0.548,0.472,0.852,0.988,0.937,0.813,0.81,0.41,0.463,0.418,0.391,0.431
SW 1573,0.883,1.03,1.01,0.901,0.799,1.05,1.1,1.17,1.3,0.961,0.222,0.211,0.159,0.176,0.198,0.648,0.463,0.431,0.573,0.517
